Source: ChEMBL document CHEMBL5226278, “Pharmacological approaches for targeting cystic fibrosis nonsense mutations” (2020)

Assay: Restoration of CFTR chloride channel activity in human HBE cells expressing wild type CFTR assessed as increase in channel function
Assay type: functional

## C[C@H](N)[C@H]1O[C@@H](O[C@@H]2[C@@H](O)[C@H](N)C[C@H](N)[C@H]2O[C@H]2O[C@H]([C@@H](C)O)[C@@H](O)[C@H](O)[C@H]2N)[C@H](O)[C@@H]1O
  Activity: 7%
